From patent publication US20160047805A1, “IN SITU-DILUTION METHOD AND SYSTEM FOR MEASURING MOLECULAR AND CHEMICAL INTERACTIONS” (FLIR SYSTEMS, INC., priority 2010, published 2016)

Key:
[1] = system: immobilized carbonic anhydrase; experiment: SPR kinetic analysis, traditional (stepped/sequential multiple) injection method, thermodynamic analysis; settings: HEPES buffer saline pH 7.4, 10, 20, 30, 40 C, 1:1 binding model
Method: (§1) In Example 1, the kinetic values for the interaction between carboxybeneze sulfonamide and immobilized carbonic anhydrase were determined using a standard multiple injection method and the in situ dilution method described herein. In the classical approach sequential injection method (FIGS. 4A-4D) a series of individual concentrations were prepared as a serial doubling dilution set starting from a neat concentration of 40 mM giving a total of nine different concentrations. These concentrations were made up in the running buffer (i.e HEPES buffer saline, pH 7.4). […] of each sample was injected at […] and allowed dissociate for 300 seconds. Each concentration was repeated in duplicate and the entire analysis was repeated at four different analysis temperatures (10 C, 20 C, 30 C, 40 C—FIGS. 4A-D, respectively). […] In this case a total of three interaction curves is recorded at three different temperatures representing a minimal data set that can be recorded at least an order faster than the conventional approach even normalized for the number replicates and the number of temperatures used. A single neat sample (40 mM) was injected using the in-situ-dilution injection and a serial doubling dilution of analyte was performed on-the-fly yielding a dose response curve. Dissociation was monitored for 200 seconds. This was repeated at three different temperatures. A blank injection was also included at each temperature for double referencing.
(§2) In both data sets the samples were injected over a protein coated and a non-coated surface to enable double referencing of the binding response curves. The resulting referenced binding response curves were then fitted with a kinetic 1:1 binding interaction model and the fitted curves are shown in red. The kinetic values were then analyzed thermodynamically to determined thermodynamic constants for the interaction and these are shown in Tables 1 and 2 below.

[2] = system: immobilized carbonic anhydrase; experiment: SPR kinetic analysis, in situ dilution injection method, thermodynamic analysis; settings: three temperatures (10, 25, 35 °C), 1:1 binding model
Method: as §1, §2

ΔG‡ Association ([1]; association): 48.53 kJ/mol | ΔH‡ Association ([1]; association): 16.6 kJ/mol | ΔS‡ Association ([1]; association): −26.1 cal/mol K | ΔG‡ Dissociation ([1]; dissociation): 80.83 kJ/mol | ΔH‡ Dissociation ([1]; dissociation): 61.21 kJ/mol | ΔS‡ Dissociation ([1]; dissociation): −16.0 cal/mol K | ΔG‡ Association ([2]; association): 46.4 kJ/mol | ΔH‡ Association ([2]; association): 17.2 kJ/mol | ΔS‡ Association ([2]; association): −24 cal/mol K | ΔG‡ Dissociation ([2]; dissociation): 78.7 kJ/mol | ΔH‡ Dissociation ([2]; dissociation): 54.8 kJ/mol | ΔS‡ Dissociation ([2]; dissociation): −20 cal/mol K
SMILES: NS(=O)(=O)c1ccc(C(=O)O)cc1 [carboxybeneze sulfonamide]
